Laboratory results reported in US9737525B2, “Small molecule activators of NRF2 pathway” (The General Hospital Corporation, priority 2013, dated 2017).
“Also recorded” adds a separate entry of the source. Where two headings read alike, the source gives them in different places.

Columns and labels:
[1] = target: recombinant human KEAP1 protein (Homo sapiens (Human), UniProt Q14145); assay: SPR (Surface Plasmon Resonance) Biacore binding assay
Method: Briefly, compound MIND4-17 and MIND4 binding to baculovirous expressed KEAP1 by Surface Plasmon Resonance (SPR) binding Biacore assay was performed by CRO Precision Antibody, Inc. Binding experiments were performed on Biacore T-200 at 25° C. using CM5 chip. Anti-GST tag antibody was immobilized by amine coupling. The ligand KEAP1 was captured until 800 RU was reached. Antigen was flowed over the chip at variable concentrations. Binding of analyte to the ligand was monitored in real time to obtain on (ka) and off (kd) rates. The equilibrium constant (KD) was calculated from the observed ka and kd. In pilot experiment the analytes MIND4 and MIND4-17 were flowed over the chip at 3 different concentrations as indicated and kinetic analysis was performed. Full kinetic analysis was performed for MIND4-17 using analyte concentrations of 140 μM (the saturating amount) and run at serial dilutions 70, 35, 17.5, 8.75, 4.375 and 0. Chi square (χ^2) analysis was carried out between the actual Sensorgram (colored line) and the sensorgram generated from the BIAnalysis software (black line) to determine the accuracy of the analysis. (χ^2) value within 2-1 is considered significant (accurate) and below 1 is highly significant (highly accurate). The flow rate used for capturing the ligand was […] and the flow rate for kinetics analysis was […]. The Biacore binding assay was performed using assay buffer: 10 mM HEPES buffer (pH 7.4), 150 mM NaCl, 3 mM EDTA, 0.005% P20 (polyoxyethylenesorbitan), 5% DMSO; regeneration buffer: 10 mM HEPES buffer (pH 7.4), 150 mM NaCl, 3 mM EDTA, 0.005% P20 (polyoxyethylenesorbitan), 5% DMSO; and conjugation buffer: 10 mM sodium acetate buffer (pH 4.5).

[2] = tested on: NRF2-responsive proteins NQO1 and GCLM; assay: Induction of NQO1 and GCLM proteins in differentiated ST14A cells (immunoblotting); assay type: cell-based, rat; details: differentiated HD mutant and wild type ST14A cells, 24 hours
Method: (§1) To assess protein levels, cell extracts were prepared from cells washed with PBS and lysed with buffer containing 2% SDS, Complete EDTA-free Protease Inhibitor Cocktail (Roche) and 1 mM phenylmethylsulfonyl fluoride. To prepare brain extracts for analysis, frozen mouse cortical tissues were homogenized in PBS containing protease inhibitors with an Kontes Pellet Pestle (Kimble/Kontes). They were later sonicated and lysed overnight at 4° C. in 2× volume of lysis buffer containing 2% SDS and protease inhibitors. Protein concentrations in ST14A cell extracts and homogenized cortical tissues were evaluated using a BCA analysis kit and normalized. Samples were prepared in a SDS buffer containing DTT and separated on bis-acrylamide protein gels via electrophoresis and transferred onto a 0.2 μm PVDF membrane). Membranes were probed for NQO1 (Sigma N5288, 1:1,000), GCLM, (Abcam ab126704, 1:800), SIRT2 (Sigma S8447, 1:2,500), histone H3 (Cell Signaling 4499, 1:2,000), acetylated H3 (K56) (Millipore 04-1135, 1:500), TNFα (Abcam ab1793, 1:1,500), GADPH (Millipore MAB374, 1:10,000), actin (Sigma A2066, 1:1250), α-tubulin (Sigma T6074, 1:20,000), and acetylated α-tubulin (Sigma T6793, 1:2,500) overnight in 5% milk in PBST at 4° C. on a rocker. Membranes were thrice washed in PBST for 15 min on a shaker and incubated in either an anti-rabbit-HRP (Bio-Rad 170-5046, 1:10,000) or anti-mouse-HRP (Sigma A3682, 1:4,000) secondary solution as appropriate in 3% milk in PBST for 1 hr at room temperature on a rocker. After four washes of 15 min in PBST on a shaker, blots were visualized using SuperSignal West Pico Chemiluminescent Substrate (Pierce 34080) or SuperSignal West Dura Extended Duration Substrate (Thermo 34075) and exposed on Scientific Imaging Film (Kodak 864 6770).
Compound bioactivity was tested in the rat embryonic striatal cell lines ST14A, which stably express either a mutant expanded repeat (128Q) or wild type (26Q) 546 amino acid huntingtin (HTT) fragment (a generous gift of E. Cattaneo) (Ehrlich et al., 2001) ST14A cells were propagated at 33° C. in the presence of serum. To induce neuronal differentiation, cells were serum deprived and cultured at 37° C. in the presence of N2 supplement. Cells were treated with compounds concurrently with induction of neuronal differentiation for 24 hours, as described (Quinti et al., 2010).
The NRF2 activation properties of further MIND4 structural analogs with variable potencies of SIRT2 inhibition were tested as described previously (see Table 1) Changes in expression of the canonical NRF2-responsive proteins NQO1 and GCLM, the transcription of which was induced by MIND4, was selected as a readout of pathway activation. Protein levels of NQO1 and GCLM were examined by immunoblotting in compound treated mutant HD and wild-type ST14A cells. […] This hypothesis was tested using a second panel of MIND4 analogs (see Table 3).

[3] = tested on: NRF2-target proteins NQO1 and GCLM; assay: NQO1 and GCLM proteins in wild type mouse cortical neurons (immunoblotting); assay type: cell-based; details: wild type mouse cortical neurons (6 DIV), 24 hr
Method: as §1
Dose-response induction of NRF2-target proteins NQO1 and GCLM in wild type mouse cortical neurons (6 DIV) treated with MIND4 and MIND4-17 for 24 hr was consistent with the compound effects on ARE-dependent gene transcription (FIG. 24E).

Sequence of recombinant human KEAP1 protein (Q14145 whole entry): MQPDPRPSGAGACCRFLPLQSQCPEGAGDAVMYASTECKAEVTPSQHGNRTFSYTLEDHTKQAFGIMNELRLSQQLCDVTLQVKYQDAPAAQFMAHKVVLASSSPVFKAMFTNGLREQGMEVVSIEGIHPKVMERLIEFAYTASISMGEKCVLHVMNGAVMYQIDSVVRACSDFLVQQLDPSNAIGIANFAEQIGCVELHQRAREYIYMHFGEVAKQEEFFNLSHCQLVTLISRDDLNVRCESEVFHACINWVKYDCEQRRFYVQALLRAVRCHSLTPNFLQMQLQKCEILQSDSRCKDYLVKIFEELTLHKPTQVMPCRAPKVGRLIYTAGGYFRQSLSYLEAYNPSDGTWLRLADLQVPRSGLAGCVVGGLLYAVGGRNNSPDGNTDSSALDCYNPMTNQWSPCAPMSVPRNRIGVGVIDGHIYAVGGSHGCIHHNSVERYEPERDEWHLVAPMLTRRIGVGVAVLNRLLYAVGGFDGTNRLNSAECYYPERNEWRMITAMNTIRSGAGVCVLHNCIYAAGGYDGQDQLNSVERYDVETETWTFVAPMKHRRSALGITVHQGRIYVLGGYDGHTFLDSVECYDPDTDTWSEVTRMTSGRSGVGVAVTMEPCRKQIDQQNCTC

Question: With O=[N+]([O-])c1ccc(Sc2nnc(COc3ccccc3)n2-c2ccccc2)c2ncccc12 [MIND4, 5-nitro-8-{[5-(phenoxymethyl)-4-phenyl-4H-1,2,4-triazol-3-yl]thio}quinoline] as the molecule, how does the Kd [1] read?
Answer: 22.8 µM

Question: And the “Mode of binding to KEAP1” value [1]?
Answer: reversible binding

Question: And the Kd ([1]; 25° C., kinetic analysis)?
Answer: 22.8 µM

Question: What about the “Induction of NRF2-responsive proteins NQO1 and GCLM” value [2] of the same molecule?
Answer: induced dose-dependent increases of NQO1 and GCLM protein

Question: And the “Expression of NQO1 protein” value [3]?
Answer: increased the expression of NQO1 protein to the same extent

Question: For O=[N+]([O-])c1ccc(Sc2nnc(COc3ccccc3)n2-c2ccccc2)nc1 [MIND4-17], which Kd [1] is on record?
Answer: 16.5 µM

Question: What about the “Mode of binding to KEAP1” value [1] of the same molecule?
Answer: reversible binding

Question: And the Kd ([1]; 25° C., kinetic analysis)?
Answer: 16.5 µM

Question: And the “Induction of NRF2-responsive proteins NQO1 and GCLM” value [2]?
Answer: potently induces NRF2-responses; also recorded: dose-dependent induction of NQO1 protein

Question: And the “Expression of NQO1 protein” value [3]?
Answer: increased the expression of NQO1 protein to the same extent

Question: And the GCLM expression [3]?
Answer: more potent inducer of GCLM expression
